The nature of the data set: gradient 5% acetonitrile 3 min, to 50% in 2 min, to 85% in 15 min, held 3 min, 100 µL/min. Conditions: column: Zorbax Extend-C18 2.1 x 50 mm; eluents: water / acetonitrile, 0.1% formic acid. The essentials:
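Mixtures of ~100 pure standards were chromatographed on a Zorbax Extend-C18 column (2.1 × 50 mm, 1.8 μm) at 100 μL/min using water and acetonitrile, each with 0.1% formic acid. Detection used a quadrupole time-of-flight mass spectrometer in positive and negative ionization mode, and data collection spanned 3 months. Retention time was obtained from adduct peaks picked computationally and each checked manually.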
As to `Cc1ccc(C)c(NC(=O)Cn2ncc3c(c2=O)N(C2CC2)C(=O)CS3)c1`, the RP-LC retention time amounted to 732 s.

In turn, `CCOC(=O)CNC(=O)NC1CCN(C2=NS(=O)(=O)C(c3ccc(C)cc3)=C2C)CC1` had an RP-LC retention time of 743 s. In the case of `COc1cccc(C2=NN(C(C)=O)C(c3cccc(Br)c3)O2)c1OC(C)=O` (centres undefined) it was 1070 s; in that of `O=C(c1cc(-c2ccc(F)cc2)c[nH]1)N1CCc2ccccc21`, 1000 s. In the case of `Cc1occc1C(=O)N1CCCn2ccnc2C1C(C)C` (centres undefined), the RP-LC retention time was determined as 574 s.

Molecule `Cc1cn(C)c(CC(=O)NCCN2CCCCC2)c1C(=O)O` came in with an RP-LC retention time of 578 s. In the case of `CCOc1ccccc1-c1csc(NC(=O)c2sc(C)nc2C)n1` it was 981 s.

`CC1=C(c2cccc(Cl)c2)S(=O)(=O)N=C1N1CCCN(C(=O)C2CCC2)CC1` registered an RP-LC retention time of 850 s. Under `O=C(Nc1c(-c2ccccc2)nc2ccccn12)c1ccccc1F` stands 638 s.

In turn, `CCOc1ccccc1NC(=O)Nc1ccc(CC(=O)NCC(F)(F)F)cc1` came in with an RP-LC retention time of 815 s. On to `Cc1ccc(NC(=O)c2cccn2Cc2noc(C3CC3)n2)cc1F`, for which the RP-LC retention time was found to be 1010 s.

With `CCNC(=O)c1n[nH]c2c1CN(C(=O)c1cc(F)ccc1F)CC2`, the RP-LC retention time came out at 648 s. In turn, `COC(=O)c1ccc(Cl)cc1NC(=O)N1CCc2nc[nH]c2C1` registered an RP-LC retention time of 644 s. In the case of `Cc1ccn2cc(-c3ccc(NC(=O)c4cccc(Cl)c4)cc3)nc2n1` it was 678 s; in that of `COCCN1C(=O)c2cc(-c3ccccc3)nn2CC1(C)C(=O)NCc1ccccc1` (centres undefined), 842 s.

`O=C(Cc1cccc(F)c1)N1CCC2(CC1)Nc1ccccc1-n1cccc12`: the RP-LC retention time stood at 998 s. With `Cc1ccc(-c2cc(C(=O)N3CCN(c4ccccn4)CC3)ccn2)s1`, the RP-LC retention time was 639 s. For `COc1ccc(NC(=O)NC2CCN(c3cc(N4CCCC4)cnn3)C2)cc1F` (centres undefined), the RP-LC retention time was determined as 625 s. Under `Cc1ccc(NC(=O)C2CCN(S(=O)(=O)c3cn(C(C)C)cn3)CC2)cc1N(C)C` stands 597 s; under `CSc1cccc(NC(=O)Cn2c(N3CCc4ccccc4C3)nc(C)cc2=O)c1`, 840 s. Molecule `O=C(CN1CCN(Cc2ccc(F)cc2)C1=O)N1CCN(C2CCCCC2)CC1` yielded an RP-LC retention time of 613 s. The molecule `COc1ccc(Cc2nnc3sc(Cc4ccc(OC)c(OC)c4)nn23)cc1` registered an RP-LC retention time of 815 s.

`Cc1ccc(C)c(NC(=O)CSc2nnc3c4cc(-c5ccc(C)c(C)c5)nn4ccn23)c1` came in with an RP-LC retention time of 778 s.

Consider `Cn1ncc2c3ccccc3n(CC(=O)N3CCN(Cc4ccccc4)CC3)c2c1=O`, for which the RP-LC retention time amounted to 639 s.

In turn, `CCNC(=O)c1sc2nc(-c3ccccc3)c(NCCOC)n2c1C` returned an RP-LC retention time of 712 s. For the molecule `CCn1cc(C(=O)N[C@H](C(=O)O)C(C)C)c(=O)c2cc3c(cc21)OCO3`, the RP-LC retention time came to 681 s. Molecule `Cc1ccc(N2CC(c3noc(-c4ccc(-c5ccccc5)cc4)n3)CC2=O)cc1` (centres undefined) yielded an RP-LC retention time of 1180 s.

In turn, `Cc1cnc(C(=O)NC2C[C@H]3CC[C@@H](C2)N3C(=O)CCC2CCCC2)cn1` (some centres undefined) registered an RP-LC retention time of 762 s. On to `CCc1cccc(NC(=O)N(C)CC2CCOC2)c1` (centres undefined), for which the RP-LC retention time is 739 s.

The molecule `COc1ccc(CCNC(=O)C2CCN(S(C)(=O)=O)c3cc(C)ccc3O2)cc1` (centres undefined) came in with an RP-LC retention time of 893 s.

Take `CC(C)(C)NC(=O)N1CCC(CNC(=O)C(=O)NCCC2=CCCCC2)CC1`: the RP-LC retention time was 818 s. The molecule `CCc1cc(C(=O)N2CCN(C(C)C)CC2)nc2cc(-c3ccccn3)nn12` came in with an RP-LC retention time of 650 s. Molecule `COc1ccc(CC(=O)N2CCC3(C2)C(=O)N(C)c2ccc(OC)cc23)c(Cl)c1` (centres undefined) yielded an RP-LC retention time of 825 s.

Molecule `COc1ccc(Cn2c(=O)n(C(C)C)c(=O)c3oc4ccccc4c32)cc1` had an RP-LC retention time of 976 s. Under `O=C(Nc1nnc(C2CC(=O)N(c3ccccc3)C2)o1)c1ccc(Cl)cc1` (centres undefined) stands 746 s; under `O=c1c2cc(-c3ccc(F)cc3)nn2cnn1Cc1nc(-c2ccccc2Br)no1`, 1140 s; under `CCOC(=O)C1CCN(C(=O)C2CCN(S(=O)(=O)c3ccc(OCC)cc3)CC2)CC1`, 878 s. `COc1ccc(N2C=C(C(=O)N3CCCC3)S(=O)(=O)c3ccc(Cl)cc32)cc1OC` registered an RP-LC retention time of 816 s. Under `Cc1ccc(CNC(=O)Cn2ncc3c(c2=O)N(C2CC2)C(=O)CS3)cc1C` stands 757 s; under `O=C(Nc1ccccc1C(=O)NCCCN1CCN(C2CCCCC2)CC1)C1=CSCCO1`, 608 s.

On to `O=S(=O)(c1ccccc1F)N1CCC(c2noc(-c3ccc(F)cc3)n2)CC1`, for which the RP-LC retention time turned out to be 1110 s. In the case of `O=C(CN1C(=O)CCCc2cc(S(=O)(=O)N3CCCCCC3)ccc21)NC1CCCCC1`, the RP-LC retention time stood at 987 s. As for `CCOc1ccc2ncc(C#N)c(NCc3ccccc3)c2c1`, the RP-LC retention time stood at 634 s. As to `CCCNc1cc(C)nc2nc(-c3ccc(C(C)(C)C)cc3)nn12`, the RP-LC retention time was 1000 s.

In turn, `CCOC(=O)c1noc2ncnc(NCC3CCN(Cc4cccc(Cl)c4)CC3)c12` showed an RP-LC retention time of 603 s. `CCOc1ccc(CN2C[C@@H](CO)[C@H](c3ccncc3)C2)cc1OCC` registered an RP-LC retention time of 556 s. In the case of `O=C(NCc1ccc(-c2noc(Cc3cccc(F)c3)n2)s1)C1CC1` it was 879 s; in that of `CCOc1ccc(CCNC(=O)C2CCCN(S(=O)(=O)N3CCC(C)CC3)C2)cc1` (centres undefined), 1010 s. In turn, `COc1ccc2c(c1)C1(CCN(S(=O)(=O)c3cccc(Cl)c3)C1)C(=O)N2C` (centres undefined) yielded an RP-LC retention time of 978 s. In the case of `COC(=O)c1sccc1S(=O)(=O)N1CCN(c2ccccn2)CC1` it was 624 s; in that of `Cc1cc(N2CCN(C(=O)COc3ccc(Cl)cc3)CC2)nc2nncn12`, 629 s. The molecule `CCOC(=O)c1sc2nc(NC(=O)COc3ccccc3)sc2c1C` came in with an RP-LC retention time of 1040 s. Molecule `Cc1ccc(F)cc1S(=O)(=O)N1CCc2c(c(-c3nnc(-c4ccccc4F)o3)nn2C)C1` had an RP-LC retention time of 981 s.

With `CCc1ccc(-c2ccc(=O)n(CCc3nc(-c4ccc5c(c4)OCO5)no3)n2)cc1`, the RP-LC retention time came to 1070 s. Under `CC(N)C(=O)OC(C)(C)Cc1ccc(Cl)cc1` (centres undefined) stands 757 s.

With `COc1ccc(S(=O)(=O)N2CCCC(C(=O)Nc3ccc(Cl)c(Cl)c3)C2)cc1C` (centres undefined), the RP-LC retention time was 1180 s.

In the case of `O=C(Nc1ccc2c(c1)OCCO2)N1CCCC(c2nn[nH]n2)C1` (centres undefined), the RP-LC retention time was 634 s.

Regarding `Cc1ccc(-c2c(-c3nn(C)c4ncnc(N5CC[C@H](N6CCCCC6)C5)c34)cnn2C)cc1`, the RP-LC retention time came out at 657 s. Under `Cc1ccc(S(=O)(=O)Nc2ccc3c(c2)CCC(=O)N3CC(C)C)cc1C` stands 939 s; under `CCc1nnc(-c2cc(C)n(CC(=O)Nc3cc(F)cc(F)c3)c2C)o1`, 844 s. Under `CCOc1ncccc1CNC(=O)CNC(C)=O` stands 568 s; under `Cc1nc(CC(=O)NC(C)c2ccccc2)sc1C(=O)NCC(C)C` (centres undefined), 763 s; under `O=C(CSc1nccn1-c1ccc(C(=O)NCc2cccs2)cc1)NC1CCCC1`, 644 s. In turn, `CC(C)n1c(=O)c2ccccc2n(Cc2nc(-c3cccc(Cl)c3)no2)c1=O` had an RP-LC retention time of 1190 s. For `CCN1CCC2(CC1)N=C(c1ccccc1)CC(c1cccc(OC)c1O)N2` (centres undefined), the RP-LC retention time stood at 584 s. `Cc1cccc(OCC(=O)Nc2ccc3c(c2)Sc2ncccc2C(=O)N3C(C)C)c1` returned an RP-LC retention time of 972 s. In the case of `COc1ccc(-c2n[nH]c3c2C(c2ccc(O)cc2)N(C)C3=O)cc1` (centres undefined) it was 667 s. On to `CCOC(=O)CCNC(=O)N1CCc2cc(-c3ccc(C(=O)N4CCOCC4)cc3)ccc21`, for which the RP-LC retention time was 724 s. Molecule `O=C(NCc1ccccc1)C1CCN(S(=O)(=O)c2ccc3[nH]c(=O)ccc3c2)CC1` registered an RP-LC retention time of 683 s.

`COc1ccc(-c2cc3c(=O)n(Cc4ccc(C)cc4C)ccn3n2)cc1OC` registered an RP-LC retention time of 1020 s. In turn, `Cc1cc(F)cc2c(=O)c3c([nH]c12)CCN(CC(=O)Nc1ccc2c(c1)OCO2)C3` showed an RP-LC retention time of 615 s. Turning to `COc1cccc(CC(=O)NC(C)C(=O)Nc2nc3ccccc3[nH]2)c1` (centres undefined), the RP-LC retention time amounted to 640 s. As for `Cc1cc(N2CCCC2)nc(N2CCN(S(=O)(=O)c3ccc4c(c3)Cc3ccccc3-4)CC2)n1`, the RP-LC retention time is 924 s. The molecule `Cc1ccc(-c2nnc(-c3nc(NCCCN4CCCC4=O)c4ccccc4n3)o2)cc1` registered an RP-LC retention time of 807 s.

Turning to `NC(=O)C1CCN(Cc2cc(-c3ccc(F)cc3)n[nH]2)CC1`, the RP-LC retention time stood at 571 s. Molecule `O=C(NCc1ccc(F)cc1)C1CCc2nc(N3CCCCC3)ncc2C1` (centres undefined) registered an RP-LC retention time of 678 s. With `CC(C)CC(=O)NCC1Cn2cccc2C(=O)N1C` (centres undefined), the RP-LC retention time was determined as 620 s. Under `O=S(=O)(c1ccc2nncn2c1)N(Cc1ccccc1Cl)c1ccccc1` stands 885 s; under `O=C1c2ccccc2C(=O)c2sc(Nc3ccc(Cl)cc3)nc21`, 1030 s.

The values above are taken from the METLIN SMRT retention time set (Domingo-Almenara et al. 2019).
